Values joined by “and” are separate entries in the source; they are usually repeats but may differ in a detail not shown here. Equal values may be shown once.
Columns and labels:
D2/3 receptors [1] = assay: chronic haloperidol treatment, striatal D2/3 Bavail by [^123I]epidepride partial saturation SPECT; format: in vivo, rat; settings: for increase in Bavail vs vehicle-treated group: haloperidol 1 mg/kg/day 28 days; for Bavail of [^123I]epidepride in haloperidol-treated group: haloperidol 1 mg/kg/day sc 28 days, scan 7 days after, n=3
Source text: (§1) 18 male Mdr1a (P-glycoprotein) knock-out (KO) rats, weighing between 380 and 500 g, were employed in the study. Using this rat strain allowed us to study the kinetics of [^123I]epidepride independently of the potentially confounding effect of the P-glycoprotein [30–34]. Of these, 3 rats were employed in an in vivo multi-injection SPECT imaging protocol for absolute D2/3 receptor quantification (SPECT-MI in Table 1). Four rats were employed in an arterial plasma analysis for the study of plasma kinetics of the radiotracer and the estimation of the free parent radiotracer fraction (TLC in Table 1). Four rats were employed in a SPECT experiment with a partial D2/3 receptor saturation design for the determination of Bavail and appKd parameters from an in vivo Scatchard plot (SPECT-PSA in Table 1). Finally, 7 rats were employed in a preliminary study of the effect of a chronic haloperidol treatment on the Bavail and appKd of the D2/3 receptors in rats (SPECT-PSA_HAL for haloperidol-treated and SPECT-PSA_CON for control rats in Table 1, see Additional file 1).
For this purpose, two groups of rats were treated with either haloperidol (1 mg/kg/day, n=3) or vehicle (n=4) for 28 days. A [^123I]epidepride SPECT scan using the partial saturation protocol was performed 7 days (a sufficient period for the complete elimination of haloperidol) after the end of the treatment period to assess neurochemical changes with respect to the D2/3 receptor. The radioactivity doses that were employed are presented in Table 1 (SPECT-PSA_HAL for haloperidol-treated and SPECT-PSA_CON for control rats). Statistical analysis of the difference in the quantitative parameter values between the groups was performed by means of a two-sample t test.
Haloperidol was purchased from Sigma-Aldrich (Buchs, Switzerland). It was dissolved in dimethyl-sulfoxide (DMSO) 50% v/v in water. Osmotic pumps (Alzet, Durect, Cupertino, CA, USA) were employed to continuously deliver the treatment at a dose of 1 mg/kg/day over 28 days. For the pump implantation, rats were anesthetized with isoflurane (3% for induction and 1-2 % for maintenance). Body temperature was monitored during the scans and maintained at 37±1 °C by means of a thermostatically controlled heating blanket. An incision was performed in the lateral abdominal wall and a pump was subcutaneously implanted. Subcutaneous analgesia (0.02 mg/kg/8h sc; Temgesic, Reckitt Benckiser Pharmaceuticals Inc) was administered right before surgery and was continued per os in the drinking water for 48h. For the removal of the osmotic pumps, the same surgical procedure was performed after the end of the treatment period (28 days).

D2/3 receptors [2] = assay: in vivo partial saturation SPECT study (in vivo Scatchard plot); set-up: species or system rat; settings: mean of 4 rats; for Kd: read-out: appKD
Source text: as §1
(§2) SPECT scans were performed with a U-SPECT-II camera (MiLabs, Utrecht, Netherlands). In rats that underwent SPECT scans with the multi-injection protocol, two polyethylene catheters (i.d. = 0.58 mm, o.d. = 0.96 mm) were inserted in the left femoral vein and artery for radiotracer administration and blood sampling, respectively. On the other hand, in rats that underwent SPECT scans for the partial saturation protocol, radiotracer injection was performed via a tail vein catheter. SPECT scans were performed under isoflurane anesthesia (3% for induction and 1–2% for maintenance). Body temperature was monitored during the scans and maintained at 37 ± 1 °C by means of a thermostatically controlled heating blanket.
(§3) SPECT image reconstruction was performed using a pixel-ordered subset expectation maximization (P-OSEM, 0.4-mm voxel size, 4 iterations, 6 subsets) algorithm using MiLabs image reconstruction software. Radioactive decay correction was performed, while correction for attenuation or scatter was not. Following reconstruction, dynamic images from the partial saturation experiment were denoised with factor analysis (FA) using Pixies software (Apteryx, Issy-les-Moulineaux, France) as previously described. FA allows the decomposition of a dynamic signal into a few elementary components, termed factors. In this study, 3 factors were retained and the rest of the signal was discarded as noise. SPECT images were processed with PMOD software v3.7 (PMOD Technologies Ltd, Zurich, Switzerland). Averaged images corresponding to the ten first frames of the acquisition were co-registered to a magnetic resonance imaging (MRI) template integrated in PMOD [37]. Transformation matrices were then applied to dynamic images.
A partial saturation protocol was employed to estimate Bavail and appKd as recently described for another D2/3 radiotracer based on the original description by Delforge et al., as optimized by Wimberley et al.. Briefly, co-injection of a dose of the unlabeled compound at doses that occupy 50–70% of the receptors allows to form a Scatchard plot when the specifically bound fraction of radiotracer (CS) is plotted against the ratio of CS to the non-displaceable binding at the same region (CS/CND). The intercept to the CS axis provides the Bavail and the inverse of the slope the appKd.
In the partial saturation approach, the cerebellar TAC is employed as an approximation of the non-displaceable binding in the target brain VOIs. Given the differences in the concentration of this binding between the Cer and the target VOIs, as well as the presence of a non-negligible specific binding in the Cer with [^123I]epidepride, the cerebellar TAC has to be corrected. […]

D2/3 receptors [3] = assay: multi-injection SPECT protocol, 2T-5k full kinetic modeling; format: in vivo, rat; settings: mean of 3 rats; for Kd: read-out: appKD
Source text: as §1, §2, §3
A multi-injection protocol for full kinetic modeling of [^123I]epidepride was employed. The scan protocol began with a first injection of the radiotracer at a high-specific activity, followed by a second co-injection of [^123I]epidepride and the unlabeled compound at 180 min and a third injection of the unlabeled compound alone at 240 min. The overall scan protocol included 360 1-min frames (Fig. 1).
The whole multi-injection study TAC data was fitted in with a two-tissue compartment five-parameter model (2T-5k), to estimate K1, k2, kon, koff, and Bavail as previously described. The free, non-metabolized radiotracer fraction in the plasma was used as the input function. During dynamic SPECT acquisitions, 40 arterial blood samples (of 25 μl each) were withdrawn after each radiotracer injection at regular time intervals. Radioactivity was measured in a gamma counting system and expressed in kBq/ml after calibration. […]

[4] = arterial plasma analysis: metabolite correction and plasma protein binding; format: in vivo; settings: rat arterial plasma, 4 rats
Source text: as §1
The whole multi-injection study TAC data was fitted in with a two-tissue compartment five-parameter model (2T-5k), to estimate K1, k2, kon, koff, and Bavail as previously described. The free, non-metabolized radiotracer fraction in the plasma was used as the input function. During dynamic SPECT acquisitions, 40 arterial blood samples (of 25 μl each) were withdrawn after each radiotracer injection at regular time intervals. Radioactivity was measured in a gamma counting system and expressed in kBq/ml after calibration. To estimate the plasma input function in in vivo SPECT experiments, only whole-blood radioactivity was measured individually and the free, non-metabolized radiotracer fraction was fitted using a model estimated in an independent experiment. Indeed, metabolite correction and plasma protein binding analysis for the estimation of radiotracer plasma input function was performed in an independent group of 4 rats, as previously described The analysis was performed in MATLAB software R2019 (Mathworks, USA).
As described in the “Methods” section describing the multi-injection study protocol, in each dynamic brain SPECT study, only whole-arterial blood radioactivity was measured. The free, non-metabolized radiotracer fraction was estimated by fitting average data from an independent group of four rats in an experiment that was independent from the SPECT scan experiments. The parameters of the bi-exponential function describing the kinetics of the mean percent non-metabolized plasma radiotracer were A1 = 0.61, B1 = − 0.20, A2 = 0.27, B2 = − 0.006. Average percentage of radiotracer bound to plasma proteins was 22% (f1 = 0.22 ± 0.06). […]

Question: Which “increase in Bavail vs vehicle-treated group” value (D2/3 receptors [1]; left CP, p = 0.07) does the source give for O=C(CCCN1CCC(O)(c2ccc(Cl)cc2)CC1)c1ccc(F)cc1 [haloperidol] here?
Answer: 17.9% and 17.97%

Question: What about the “Bavail of [^123I]epidepride in haloperidol-treated group” value (D2/3 receptors [1]; left CP) of the same compound?
Answer: 25.67 ± 2.30 pmol/mL

Question: What about the “increase in Bavail vs vehicle-treated group” value (D2/3 receptors [1]; right CP, p = 0.12) of the same compound?
Answer: 13.8% and 13.84%

Question: And the “Bavail of [^123I]epidepride in haloperidol-treated group” value (D2/3 receptors [1]; right CP)?
Answer: 25.33 ± 2.52 pmol/mL

Question: Which results are given for CCN1CCC[C@H]1CNC(=O)c1cc(I)cc(OC)c1OC [[^123I]epidepride]?
Answer: Bavail (D2/3 receptors [2]; Amy, fixed appKd): 2.77 pmol/mL; Bavail (D2/3 receptors [2]; CP): 21.25 pmol/mL; Kd (D2/3 receptors [2]; CP): 0.08 nM; Bavail (D2/3 receptors [2]; FC, fixed appKd): 5.15 pmol/mL; Bavail (D2/3 receptors [2]; Hyp, fixed appKd): 3.85 pmol/mL; Bavail (D2/3 receptors [2]; InfC, fixed appKd): 4.46 pmol/mL; Bavail (D2/3 receptors [2]; NAc): 11.75 pmol/mL; Kd (D2/3 receptors [2]; NAc): 0.27 nM; Bavail (D2/3 receptors [2]; SupC, fixed appKd): 3.97 pmol/mL; Bavail (D2/3 receptors [2]; VTA, fixed appKd): 4.01 pmol/mL; Bavail (D2/3 receptors [3]; Amy): 2.71 pmol/mL; k2 (D2/3 receptors [3]; Amy): 0.16 min⁻¹; koff (D2/3 receptors [3]; Amy): 0.0005 s⁻¹; Κ1 (D2/3 receptors [3]; Amy): 0.38 mL.cm^-3 .min-^1; Kd (D2/3 receptors [3]; Amy): 0.36 nM; Bavail (D2/3 receptors [3]; CP): 24.22 pmol/mL; k2 (D2/3 receptors [3]; CP): 0.10 min⁻¹; koff (D2/3 receptors [3]; CP): 0.00067 s⁻¹; Κ1 (D2/3 receptors [3]; CP): 0.69 mL.cm^-3 .min-^1; Kd (D2/3 receptors [3]; CP): 0.22 nM; Bavail (D2/3 receptors [3]; Cer): 2.02 pmol/mL; k2 (D2/3 receptors [3]; Cer): 0.20 min⁻¹; koff (D2/3 receptors [3]; Cer): 0.00033 s⁻¹; Κ1 (D2/3 receptors [3]; Cer): 0.66 mL.cm^-3 .min-^1; Kd (D2/3 receptors [3]; Cer): 0.65 nM; Bavail (D2/3 receptors [3]; FC): 20.67 pmol/mL; k2 (D2/3 receptors [3]; FC): 0.09 min⁻¹; koff (D2/3 receptors [3]; FC): 0.0005 s⁻¹; Κ1 (D2/3 receptors [3]; FC): 0.40 mL.cm^-3 .min-^1; Kd (D2/3 receptors [3]; FC): 4.5 nM; Bavail (D2/3 receptors [3]; Hyp): 3.64 pmol/mL; k2 (D2/3 receptors [3]; Hyp): 0.13 min⁻¹; koff (D2/3 receptors [3]; Hyp): 0.00083 s⁻¹; Κ1 (D2/3 receptors [3]; Hyp): 0.50 mL.cm^-3 .min-^1; Kd (D2/3 receptors [3]; Hyp): 0.37 nM; Bavail (D2/3 receptors [3]; InfC): 3.03 pmol/mL; k2 (D2/3 receptors [3]; InfC): 0.17 min⁻¹; koff (D2/3 receptors [3]; InfC): 0.00067 s⁻¹; Κ1 (D2/3 receptors [3]; InfC): 0.80 mL.cm^-3 .min-^1; Kd (D2/3 receptors [3]; InfC): 0.18 nM; Bavail (D2/3 receptors [3]; NAc): 10.18 pmol/mL; k2 (D2/3 receptors [3]; NAc): 0.10 min⁻¹; koff (D2/3 receptors [3]; NAc): 0.00067 s⁻¹; Κ1 (D2/3 receptors [3]; NAc): 0.53 mL.cm^-3 .min-^1; Kd (D2/3 receptors [3]; NAc): 0.15 nM; Bavail (D2/3 receptors [3]; SupC): 3.86 pmol/mL; k2 (D2/3 receptors [3]; SupC): 0.16 min⁻¹; koff (D2/3 receptors [3]; SupC): 0.00083 s⁻¹; Κ1 (D2/3 receptors [3]; SupC): 0.70 mL.cm^-3 .min-^1; Kd (D2/3 receptors [3]; SupC): 0.28 nM; Bavail (D2/3 receptors [3]; VTA): 3.77 pmol/mL; k2 (D2/3 receptors [3]; VTA): 0.14 min⁻¹; koff (D2/3 receptors [3]; VTA): 0.00067 s⁻¹; Κ1 (D2/3 receptors [3]; VTA): 0.57 mL.cm^-3 .min-^1; Kd (D2/3 receptors [3]; VTA): 0.34 nM; fraction unbound ([4]; male, Mdr1a (P-glycoprotein) knock-out, read-out: Average percentage of radiotracer bound to plasma proteins (converted)): 0.78; A1 of bi-exponential function of mean percent non-metabolized plasma radiotracer [4]: 0.61; A2 of bi-exponential function of mean percent non-metabolized plasma radiotracer [4]: 0.27; f1 [4]: 0.22 ± 0.06
